Assay results taken from patent publication US5925331A, “Technetium-99m labeled peptides for thrombus imaging” (Diatide, Inc., priority 1995, dated 1999).

Tested on: human platelets in platelet-rich plasma
Experiment: Platelet aggregation inhibition assay (ADP-induced, platelet-rich plasma)
Format: cell-based
Conditions: fresh human platelet-rich plasma, 300,000 platelets per microliter; ADP 10 to 15 micromolar; read-out: IC50: concentration of reagent that inhibits by 50% the aggregation of human platelets in platelet-rich plasma induced by ADP
Experimental: Platelet aggregation studies were performed essentially as described by Zucker (1989, Methods in Enzymol. 169: 117-133). Briefly, platelet aggregation was assayed with or without putative platelet aggregation inhibitory compounds using fresh human platelet-rich plasma, comprising 300,000 platelets per microliter. Platelet aggregation was induced by the addition of a solution of adenosine diphosphate to a final concentration of 10 to 15 micromolar, and the extent of platelet aggregation monitored using a Bio/Data aggregometer (Bio/Data Corp., Horsham, Pa.). The concentrations of platelet aggregation inhibitory compounds used were varied from 0.1 to 500 μg/mL. The concentration of inhibitor that reduced the extent of platelet aggregation by 50% (defined as the IC50) was determined from plots of inhibitor concentration versus extent of platelet aggregation. An inhibition curve for peptide RGDS was determined for each batch of platelets tested as a positive control.

Compound	IC50 [µM]
CC(=O)NCSC[C@H](NC(=O)CNC(=O)CNC(=O)[C@@H]1CSCC(=O)N[C@H](Cc2ccc(O)cc2)C(=O)N[C@@H](CSCCCN)C(=O)NCC(=O)N[C@@H](CC(=O)O)C(=O)N1)C(=O)NCC(=O)N[C@@H](CSCNC(C)=O)C(=O)NCC(=O)NCC(=O)N[C@H](Cc1ccccc1)C(=O)N1CCC[C@H]1C(=O)N[C@@H](CCCNC(=N)N)C(=O)N1CCC[C@H]1C(=O)NCC(N)=O [Peptide P245, CH2 CO--YD.Apc.GDCGGCAcm GCAcm GGFD PRPGamide]	0.5
(CH2 CO--YD ApcGDCKGCAcm GCAcm GGC-amide)2 --BSME [Peptide P381]	0.035
GRDGVRGDFCAcm GCAcm amide [Peptide P98]	15
GRGDVRGDFKCAcm GCAcm amide [Peptide P97]	8
